Earlier results, collected in patent US6063370A, “Macromolecular complexes for drug delivery” (The Board of Trustees of the University of Illinois, priority 1998, dated 2000).

Settings: heparin having an Mw of about 6,000

Which Bioavailability does the source give for heparin here?
The Bioavailability was 85%.
